The subject of assay [1] is HepG2 cells. As to the kind of experiment: MTT antiproliferative assay, HepG2 cells. Format: cell-based. The settings on record: for IC50: Homo sapiens, read-out: HepG2 IC50; for HepG2 TI (therapeutic index): ratio of IC50 against WI38 cells to IC50 against HepG2 cells. The text has this: Recently, OSe agents have attracted interest due to their potential chemoprotective and antitumor properties. We have developed several OSe compounds with promising antioxidant, antimicrobial, and antitumor properties. Therefore, we estimated the OSe agents’ antiproliferative activities against different cancer cells, i.e., MCF-7 and HepG2 cells and healthy lung fibroblast WI-38 cells, using the MTT assay. The drug doxorubicin was employed as the standard. The corresponding therapeutic indices (TI) are described as the proportion of the WI38 cells IC50 to the IC50 of the cancer cell (e.g., MCF-7 and HepG2) (Table 1).
(§1) The products’ anticancer activity was examined using the MTT assay against breast (MCF-7) carcinoma cells, liver (HepG2), and normal WI-38 cells, following the previously reported method. Experimental details can be found in the Supplementary Materials.
(§2) 1.1. The biological assays
(§3) 1.1.1. The anticancer activity
(§4) The breast adenocarcinoma (MCF-7), Hepatocellular carcinoma (HEPG-2), and normal fibroblast (WI-38) cells were obtained from ATCC via Holding company for biological products and vaccines (VACSERA), Cairo, Egypt. The reagents […] medium, MTT, DMSO, and fetal bovine serum was obtained from Sigma Aldrich. Dulbecco’s modified Eagle’s medium was used as the culture medium for the cells, and the cytotoxicity was evaluated using the reported MTT assay. Doxorubicin was used as the positive reference, and the IC50 values were obtained from the corresponding dose-response curve.
(§5) This colorimetric assay is based on converting the yellow tetrazolium bromide (MTT) to a purple formazan derivative by mitochondrial succinate dehydrogenase in viable cells. Cell lines were cultured in […] medium with 10% fetal bovine serum. Antibiotics added were 100 units/ml penicillin and 100µg/ml streptomycin at 37 C in a 5% Co2 incubator. The cell lines were seeded in a 96-well plate at a density of 1.0x10^4 cells/well. at 37 C for 48 h under 5% Co2. After incubation, the cells were treated with different concentrations of compounds and incubated for 13 […]
Finally, dimethyl sulfoxide (DMSO) in the volume of 100 µl is added to each well to dissolve the purple formazan formed. The colorimetric assay is measured and recorded at an absorbance of 570 nm using a plate reader (EXL 800, USA). The percentage of the relative cell viability was calculated as (A570 of treated samples/A570 of the untreated sample) X 100. […]
For orientation: Tetrazolium dyes change colour on reduction, which living cells bring about.

Assay [2] relates to S. aureus. As to the kind of experiment: Agar diffusion assay, S. aureus. The settings on record: Staphylococcus aureus; 6-mm disks soaked with 20 μM of the OSe agents; read-out: S. aureus ZID (inhibition zone diameter). Format: cell-based. For orientation: In agar diffusion tests the substance spreads into inoculated agar from a disc or well.
For assay [3], the system named is S. aureus. As to the kind of experiment: Agar diffusion assay, S. aureus. The settings on record: ratio of inhibition zone of compound to that of positive control (ampicillin). Format: cell-based, Staphylococcus aureus. Set-up: concentration or dose not given beside the values. The text has this:
(§6) The encouraging antitumor properties of the OSe compounds motivated us to evaluate their corresponding antimicrobial activities against the C. albicans fungal strain, S. aureus Gram-positive bacteria, and E. coli Gram-negative bacteria. Therefore, we applied the agar diffusion and minimum inhibitory concentration (MIC) methods using clotrimazole antifungal and ampicillin antibacterial drugs as standards.
The products’ antimicrobial properties were examined according to the previously reported method, via agar well diffusion assay against E. coli, S. aureus, and C. albicans. A microdilution method was also used to record MICs (M), following the previously reported procedure. Experimental details can be found in the Supplementary Materials. […]
(§7) 1.1.2. The antimicrobial activity
The antimicrobial activities of the OSe compounds were evaluate d against C. albicans yeast as well as E. coli gram-negative and S. aureus gram-positive bacteria employing the agar well diffusion assay.
Briefly, a concentration of 1 mM was prepared for each compound by dissolving in DMSO. Paper discs of standard size […] were sterilized in an autoclave and soaked in 9 µL of the test compounds, and placed in the Petri dishes, which in turn contain a nutrient media (agar 9 g, peptone 5 g, and beef extract 3 g) seeded with the dedicated strain. Incubation lasted for 13 h at 36 0C.
Experiments were replicated three times and the antifungal clotrimazole and antibiotic ampicillin […]

Assay [4] relates to E. coli. As to the kind of experiment: Agar diffusion assay, E. coli. Format: cell-based, Escherichia coli. Particulars: for E. coli ZID (inhibition zone diameter): 6-mm disks soaked with 20 μM of the OSe agents; for E. coli IA% (activity index): ratio of inhibition zone of compound to that of positive control (ampicillin).
Excerpt: as §6
The products’ antimicrobial properties were examined according to the previously reported method, via agar well diffusion assay against E. coli, S. aureus, and C. albicans. A microdilution method was also used to record MICs (M), following the previously reported procedure. Experimental details can be found in the Supplementary Materials.
1.1. […]
as §7
The antimicrobial activities of the OSe compounds were evaluate d against C. albicans yeast as well as E.
coli gram-negative and S. aureus gram-positive bacteria employing the agar well diffusion assay. […]
5 g, and beef extract 3 g) seeded with the dedicated strain. Incubation lasted for 13 h at 36 0C.
Experiments were replicated three times and the antifungal clotrimazole and antibiotic ampicillin
1.1.3. […]

For assay [5], the system named is WI-38 cells. In words: MTT cytotoxicity assay, normal lung fibroblast WI-38 cells. The format is cell-based. Particulars: Homo sapiens, WI-38, 24 h, read-out: WI38 IC50.
Excerpt: (§8) Recently, OSe agents have attracted interest due to their potential chemoprotective and antitumor properties. […] Therefore, we estimated the OSe agents’ antiproliferative activities against different cancer cells, i.e., MCF-7 and HepG2 cells and healthy lung fibroblast WI-38 cells, using the MTT assay. The drug doxorubicin was employed as the standard. The corresponding therapeutic indices (TI) are described as the proportion of the WI38 cells IC50 to the IC50 of the cancer cell (e.g., MCF-7 and HepG2) (Table 1).
as §1, §2, §3, §4, §5
(§9) Finally, dimethyl sulfoxide (DMSO) in the volume of 100 µl is added to each well to dissolve the purple formazan formed. The colorimetric assay is measured and recorded at an absorbance of 570 […]
(§10) The percentage of the relative cell viability was calculated as (A570 of treated samples/A570 of the untreated sample) X 100. […]

Assay [6] relates to MCF-7 cells. In words: MTT antiproliferative assay, MCF-7 cells. Format: cell-based. Particulars: for IC50: Homo sapiens, MCF7, 24 h, read-out: MCF7 IC50; for MCF7 TI (therapeutic index): ratio of IC50 against WI38 cells to IC50 against MCF-7 cells.
Excerpt: as §8, §1, §2, §3, §4, §5, §9, §10

Assay [7] relates to C. albicans. In words: Agar diffusion assay, C. albicans. The format is cell-based, Candida albicans. The settings on record: for zone of inhibition at 20 µM: Candida albicans, read-out: C. albicans ZID (inhibition zone diameter); for C. albicans IA% (activity index): ratio of inhibition zone of compound to that of positive control (clotrimazole).

Where two headings read alike, the source gives them in different places.

One may read the IC50 as the concentration needed to halve the response being measured. For the molecule `COc1cccc2c1C(=O)c1c(O)c3c(c(O)c1C2=O)C[C@@](O)(C(=O)CO)C[C@@H]3O[C@H]1C[C@H](N)[C@H](O)[C@H](C)O1` [Adriamycin, doxorubicin, reference compound], in assay [1] (MTT bioassay, HepG2 cells, 24 h incubation), the IC50 turned out to be 4.5 ± 0.2 µM.

With `CC1(C)S[C@@H]2[C@H](NC(=O)[C@H](N)c3ccccc3)C(=O)N2[C@H]1C(=O)O` [Ampicillin, ampicillin, reference compound], the zone of inhibition at 20 µM in assay [2] came to 21 mm. Moreover, the “S. aureus IA% (activity index)” value in assay [3] was determined as 100%. For the same molecule, in assay [4], the “E. coli ZID (inhibition zone diameter)” value came to 23 mm and the “E. coli IA% (activity index)” value was 100%.

`CC(=O)Nc1ccc([Se]CC(=O)NOCc2ccccc2)cc1` [Compound 9, 2-((4-Acetamidophenyl)selanyl)-N-(benzyloxy)acetamide]: the half-maximal inhibitory concentration (IC50) in assay [1] (HepG2, 24 h) stood at 53 ± 3.2 µM. The “HepG2 TI (therapeutic index)” value in assay [1] worked out at 1.6. In assay [2], the zone of inhibition at 20 µM was 7 mm. The half-maximal inhibitory concentration (IC50) in assay [5] was found to be 84.8 ± 4.8 µM. Further, in assay [6], the IC50 came to 45.6 ± 2.9 µM and the “MCF7 TI (therapeutic index)” value stood at 1.9. In assay [7], the zone of inhibition at 20 µM is 9 mm and the “C. albicans IA% (activity index)” value was 37.5%. For the same molecule, the “S. aureus IA% (activity index)” value in assay [3] came to 33.3%. Further, in assay [4], the “E. coli ZID (inhibition zone diameter)” value came to 6 mm and the “E. coli IA% (activity index)” value was found to be 26.1%.

For `O=C(O)CCC(=O)Nc1ccc([Se]CC(=O)NOCc2ccccc2)cc1` [Compound 11, 4-((4-((2-((Benzyloxy)amino)-2-oxoethyl)selanyl)phenyl)amino)-4-oxobutanoic Acid], the IC50 in assay [1] (HepG2, 24 h) came out at 48.8 ± 2.8 µM. Moreover, the “HepG2 TI (therapeutic index)” value in assay [1] is 1.1. Further, the zone of inhibition at 20 µM in assay [2] amounted to 10 mm. In assay [5], the half-inhibitory concentration (IC50) amounted to 52.5 ± 3.2 µM. Also, in assay [6], the IC50 was determined as 35 ± 2.5 µM and the “MCF7 TI (therapeutic index)” value is given as 1.5. Moreover, in assay [7], the zone of inhibition at 20 µM amounted to 13 mm and the “C. albicans IA% (activity index)” value was 54.2%. Also, in assay [3], the “S. aureus IA% (activity index)” value is given as 47.6%. In addition, in assay [4], the “E. coli ZID (inhibition zone diameter)” value is on record as 7 mm and the “E. coli IA% (activity index)” value turned out to be 30.4%.

`O=C(O)C=CC(=O)Nc1ccc([Se]CC(=O)NOCc2ccccc2)cc1` [Compound 12, 4-((4-((2-((Benzyloxy)amino)-2-oxoethyl)selanyl)phenyl)amino)-4-oxobut-2-enoic Acid]: in assay [1] (HepG2, 24 h), the 50% inhibitory concentration (IC50) is 72.9 ± 3.7 µM. For the same molecule, the “HepG2 TI (therapeutic index)” value in assay [1] turned out to be 0.5. Further, the zone of inhibition at 20 µM in assay [2] was found to be 5 mm. Further, the half-maximal inhibitory concentration (IC50) in assay [5] is 36.5 ± 2.4 µM. For the same molecule, in assay [6], the half-maximal inhibitory concentration (IC50) was determined as 63 ± 3.8 µM and the “MCF7 TI (therapeutic index)” value is recorded as 0.6. Moreover, in assay [7], the zone of inhibition at 20 µM was found to be 10 mm and the “C. albicans IA% (activity index)” value is recorded as 41.7%. Also, the “S. aureus IA% (activity index)” value in assay [3] is on record as 23.8%. In assay [4], the “E. coli ZID (inhibition zone diameter)” value amounted to 4 mm and the “E. coli IA% (activity index)” value is given as 17.4%.

Take `O=C(C[Se]c1ccc(NC(=O)CCl)cc1)NOCc1ccccc1` [Compound 14, N-(benzyloxy)-2-((4-(2-chloroacetamido)phenyl)selanyl)acetamide]: the 50% inhibitory concentration (IC50) in assay [1] (HepG2, 24 h) was > 100 µM; in assay [5], > 100 µM; in assay [6], 87.4 ± 4.1 µM. Further, the “MCF7 TI (therapeutic index)” value in assay [6] was 1.1. For the same molecule, the zone of inhibition at 20 µM in assay [7] turned out to be 4 mm. In assay [7], the “C. albicans IA% (activity index)” value is 16.7%.

`CCOC(=O)C(C#N)=NNc1ccc([Se]CC(=O)NOCc2ccccc2)cc1` [Compound 15, Ethyl 2-(2-(4-((2-((benzyloxy)amino)-2-oxoethyl)selanyl)phenyl)hydrazineylidene)-2-cyanoacetate]: the IC50 in assay [1] (HepG2, 24 h) came out at 15.8 ± 1.3 µM. In assay [1], the “HepG2 TI (therapeutic index)” value turned out to be 5.2. In addition, in assay [2], the zone of inhibition at 20 µM came out at 15 mm. For the same molecule, the IC50 in assay [5] is 82 ± 4.6 µM. Further, in assay [6], the half-inhibitory concentration (IC50) was 21.6 ± 1.6 µM and the “MCF7 TI (therapeutic index)” value stood at 3.8. Besides, in assay [7], the zone of inhibition at 20 µM was found to be 20 mm and the “C. albicans IA% (activity index)” value is given as 83.3%. In assay [3], the “S. aureus IA% (activity index)” value turned out to be 71.4%. Further, in assay [4], the “E. coli ZID (inhibition zone diameter)” value is recorded as 12 mm and the “E. coli IA% (activity index)” value worked out at 52.2%.

Regarding `O=C(C[Se]c1ccc(N=Nc2ccc(O)cc2)cc1)NOCc1ccccc1` [Compound 16, N-(benzyloxy)-2-((4-((4-hydroxyphenyl)diazenyl)phenyl)selanyl)acetamide], the concentration for half-maximal inhibition (IC50) in assay [1] (HepG2, 24 h) was determined as 26.5 ± 2 µM. Moreover, the “HepG2 TI (therapeutic index)” value in assay [1] is on record as 2.4. The zone of inhibition at 20 µM in assay [2] was found to be 11 mm. In assay [5], the IC50 was determined as 64.2 ± 3.9 µM. Moreover, in assay [6], the IC50 amounted to 33.7 ± 2.4 µM and the “MCF7 TI (therapeutic index)” value is recorded as 1.9. Moreover, in assay [7], the zone of inhibition at 20 µM worked out at 16 mm and the “C. albicans IA% (activity index)” value was 66.7%. Also, the “S. aureus IA% (activity index)” value in assay [3] was 52.4%. In assay [4], the “E. coli ZID (inhibition zone diameter)” value was 9 mm and the “E. coli IA% (activity index)” value is 39.1%.

Source of the values: paper PMC10059083, “Design, Synthesis, and Biological Evaluation of Novel Hydroxamic Acid-Based Organoselenium Hybrids” (Pharmaceuticals, 2023).
